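Step 1: Grow cells in 96-well plates. Step 2: Expose to compound for 48 hours at 5 concentrations. Step 3: Interpolate endpoints linearly; if unreached, use highest concentration. GI50: concentration for 50% inhibition of growth.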 The source made the active and inactive calls. No stated cut-off is given here; in the data, active = GI50 up to about 1.1 µM and inactive = higher.
Experiments:
Assay in all cases: inhibition of tumour cell growth, NCI panel, 48 h
[1] = tested on: HCC 2998
[2] = tested on: RXF 393
[3] = tested on: SR
[4] = tested on: MDA-N
[5] = tested on: Hs-578T
[6] = tested on: SK-MEL-28
[7] = tested on: T47D
[8] = tested on: COLO 205
[9] = tested on: HT-29
[10] = tested on: MCF7
[11] = tested on: LOX IMVI
[12] = tested on: OVCAR-5
[13] = tested on: HCT-116
[14] = tested on: OVCAR-3
[15] = tested on: DU-145
[16] = tested on: NCI-H522
[17] = tested on: OVCAR-4
[18] = tested on: NCI/ADR-RES
[19] = tested on: 786-0

Measured: GI50

CCC(C)NC1=NCC(C)S1 (stereo not given)
inactive: [1] > 100 µM | [2] 28.3 µM | [3] > 100 µM | [4] > 100 µM | [5] > 100 µM | [6] > 100 µM | [7] > 100 µM | [8] > 100 µM | [9] > 100 µM | [10] > 100 µM | [11] > 100 µM | [12] > 100 µM | [13] > 100 µM | [14] > 100 µM | [15] > 100 µM | [16] > 100 µM

CC(=O)C1(c2ccccc2)CCCN(C)CC1 (stereo not given)
inactive: [1] > 100 µM | [17] > 100 µM | [18] > 100 µM | [3] > 100 µM | [4] > 10 µM | [5] > 100 µM | [6] > 100 µM | [7] > 100 µM | [8] > 100 µM | [9] > 100 µM | [10] > 100 µM | [11] > 100 µM | [12] > 100 µM | [13] > 100 µM | [14] > 100 µM | [15] > 100 µM

ClC1=C(Cc2ccccc2)Cc2ccc3c(c21)CCC3
inactive: [1] 20 µM | [2] 19.7 µM | [17] 9.23 µM | [3] 18.3 µM | [4] 36.6 µM | [5] 23.2 µM | [6] 66.5 µM | [19] 30.4 µM | [7] 18.5 µM | [8] 13.4 µM | [9] 22.6 µM | [10] 18.9 µM | [11] 17.9 µM | [12] 61.2 µM | [13] 28.3 µM | [14] 36.4 µM | [15] 48.5 µM | [16] 17.7 µM

C=CCCCC1CCCNC1=S (stereo not given)
inactive: [1] > 100 µM | [2] > 100 µM | [17] > 100 µM | [4] > 100 µM | [5] > 100 µM | [6] > 100 µM | [19] > 100 µM | [7] > 100 µM | [9] > 100 µM | [10] > 100 µM | [12] > 100 µM | [13] > 100 µM | [14] > 100 µM | [15] > 100 µM | [16] > 100 µM

CN1N=C(c2ccncc2)OC1c1cccc(F)c1 (stereo not given)
inactive: [1] > 100 µM | [2] > 100 µM | [17] > 100 µM | [18] > 100 µM | [4] > 100 µM | [5] > 100 µM | [6] > 100 µM | [19] > 100 µM | [7] > 100 µM | [8] > 100 µM | [9] > 100 µM | [10] > 100 µM | [11] > 100 µM | [12] > 100 µM | [13] > 100 µM | [14] > 100 µM | [15] > 100 µM | [16] > 100 µM

O=C(CC(=O)N1N=C(N2CCCCC2)CC1c1ccccc1)Nc1ccc(Cl)cc1 (stereo not given)
inactive: [1] > 100 µM | [17] > 100 µM | [18] > 100 µM | [4] > 100 µM | [5] > 100 µM | [6] > 100 µM | [19] > 100 µM | [7] > 100 µM | [8] > 100 µM | [9] > 100 µM | [10] > 100 µM | [11] > 100 µM | [12] > 100 µM | [13] > 100 µM | [14] > 100 µM | [15] > 100 µM | [16] > 100 µM

CC1(C)[C@@H](Cn2nnc3c(N)ncnc32)CC[C@@]1(C)CO
inactive: [1] 12.6 µM | [2] > 100 µM | [17] > 100 µM | [18] > 100 µM | [4] > 100 µM | [5] > 100 µM | [6] > 100 µM | [19] > 100 µM | [7] > 100 µM | [10] > 100 µM | [11] > 100 µM | [12] > 100 µM | [13] > 100 µM | [14] > 100 µM | [15] > 100 µM

C=C1C(=O)O[C@H]2C(=O)[C@H](C)CCC[C@@](C)(O)/C=C\C[C@@]3(C)O[C@@H]3C[C@@H]12
inactive: [18] 39.4 µM | [4] 17.9 µM | [5] 27 µM | [19] 12.3 µM | [7] 23.7 µM | [8] 16.2 µM | [9] 14.8 µM | [10] 18.7 µM | [11] 15.8 µM | [12] 1.68 µM | [13] 7.29 µM | [14] 11.2 µM | [15] 14.5 µM | [16] 2.88 µM

C=C1[C@@](C)([C@@H]2CCCS2)[C@H]2C(C)=C[C@]1(C)n1c(=O)n(-c3ccccc3)c(=O)n12
inactive: [1] > 100 µM | [17] > 100 µM | [18] > 100 µM | [4] > 100 µM | [5] > 100 µM | [6] > 100 µM | [19] > 100 µM | [7] > 100 µM | [8] > 100 µM | [9] > 100 µM | [10] > 100 µM | [12] > 100 µM | [13] > 100 µM | [14] > 100 µM | [15] > 100 µM | [16] > 100 µM

COc1ccccc1N1CCN(CCCN2C(C(=O)c3ccccc3)=C(O)c3c(C)cc(C)nc3S2(=O)=O)CC1
inactive: [2] 5.28 µM | [17] 73.3 µM | [18] 50.4 µM | [3] 46.2 µM | [4] > 100 µM | [5] 59.3 µM | [6] > 100 µM | [19] 39.5 µM | [7] > 100 µM | [8] 64 µM | [9] 34.8 µM | [10] 96.4 µM | [11] 13.4 µM | [12] 92.7 µM | [13] 61.2 µM | [14] 55 µM | [15] > 100 µM | [16] 32.2 µM

N#CCCN(CCNc1ccccc1)C(=O)Nc1ccc(NC(=O)N(CCC#N)CCNc2ccccc2)cc1
inactive: [1] > 100 µM | [2] > 45.3 µM | [17] 24.7 µM | [18] > 63.8 µM | [4] > 100 µM | [5] > 41.9 µM | [6] > 94.8 µM | [19] > 68.9 µM | [7] > 58.1 µM | [8] > 100 µM | [9] > 100 µM | [10] > 100 µM | [11] 51.1 µM | [12] > 100 µM | [13] > 100 µM | [14] > 92.9 µM | [15] > 92.9 µM | [16] 21.1 µM

CCC(C#N)NCc1cccc(CNC(C#N)CC)c1 (stereo not given)
inactive: [1] > 100 µM | [17] > 100 µM | [18] > 100 µM | [4] > 100 µM | [5] 98.9 µM | [6] > 100 µM | [19] > 100 µM | [7] > 100 µM | [8] > 100 µM | [9] > 100 µM | [10] > 100 µM | [11] > 100 µM | [12] 20 µM | [13] > 100 µM | [14] > 100 µM | [15] > 100 µM | [16] > 100 µM

NCCN1C(=O)c2ccccc2C1c1ccc(Cl)cc1 (stereo not given)
inactive: [1] > 100 µM | [2] > 100 µM | [17] > 100 µM | [18] > 100 µM | [3] > 100 µM | [4] > 100 µM | [5] > 100 µM | [6] > 100 µM | [19] > 100 µM | [7] > 100 µM | [8] > 100 µM | [9] > 100 µM | [10] > 100 µM | [11] > 100 µM | [12] > 100 µM | [13] > 100 µM | [14] > 100 µM | [15] > 100 µM

CCNC(=O)Nc1cccc(NC(=O)NCC)n1
inactive: [1] 62.1 µM | [2] > 100 µM | [17] > 100 µM | [3] 51.4 µM | [4] > 100 µM | [5] > 100 µM | [6] > 100 µM | [19] > 100 µM | [7] > 100 µM | [8] > 100 µM | [9] 76.4 µM | [10] 57.1 µM | [12] > 100 µM | [13] > 100 µM | [14] > 100 µM | [15] > 100 µM | [16] > 100 µM

COC(=O)c1cc(OS(=O)(=O)C(F)(F)F)c(=O)n2c1CCCC2
inactive: [2] > 100 µM | [17] > 100 µM | [18] > 100 µM | [4] > 100 µM | [5] > 100 µM | [6] > 100 µM | [19] > 100 µM | [7] > 100 µM | [8] > 100 µM | [9] > 100 µM | [10] > 100 µM | [11] > 100 µM | [12] > 100 µM | [13] > 100 µM | [15] > 100 µM | [16] > 100 µM

Cc1ccc(/N=N/c2c(O)ccc3cc(S(=O)(=O)O)ccc23)cc1
inactive: [2] > 100 µM | [17] > 100 µM | [18] > 100 µM | [4] > 100 µM | [5] > 100 µM | [6] > 100 µM | [19] 12.6 µM | [7] 66.8 µM | [8] 73.5 µM | [9] > 100 µM | [11] 18.2 µM | [12] > 100 µM | [13] 24.2 µM | [14] > 100 µM | [15] > 100 µM | [16] > 100 µM

Source: ChEMBL document CHEMBL1201862, “PubChem BioAssay data set” (2004)
